In PubChem BioAssay AID1963844 (Molecular Pharmacology Branch, DTP, NCI, 2024):

System: 422866-222-R5-J1-PDC complex spheroid viability
Experiment: Anticancer human tumor 422866-222-R5-J1-PDC patient-derived pancreatic adenocarcinoma cell line growth inhibition [POLQ]
Conditions: for IC50: curve of first compound; for viability, T/C: stronger effect = lower value
How it was run: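 Patient-derived tumour cells were co-cultured with HUVEC and mesenchymal stem cells as multicellular spheroids at 37 °C. They were treated with POLQ inhibitors (novobiocin, ART-558, RP6685) alone or combined with other agents. Top concentrations were at or near clinical Cmax (otherwise 10 microM; SN-38 at 1 microM), decreasing in half-log steps.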

[1] = second compound 0.0316 µM, first compound 0.0316 µM
[2] = second compound 0.0316 µM, first compound 0.1 µM
[3] = second compound 0.0316 µM, first compound 0.316 µM
[4] = second compound 0.0316 µM, first compound 1 µM
[5] = second compound 0.1 µM, first compound 0.0316 µM
[6] = second compound 0.1 µM, first compound 0.1 µM
[7] = second compound 0.1 µM, first compound 0.316 µM
[8] = second compound 0.1 µM, first compound 1 µM
[9] = second compound 0.316 µM, first compound 0.0316 µM
[10] = second compound 0.316 µM, first compound 0.1 µM
[11] = second compound 0.316 µM, first compound 0.316 µM
[12] = second compound 0.316 µM, first compound 1 µM
[13] = second compound 1 µM, first compound 0.0316 µM
[14] = second compound 1 µM, first compound 0.1 µM
[15] = second compound 1 µM, first compound 0.316 µM
[16] = second compound 1 µM, first compound 1 µM
[17] = second compound 3.16 µM, first compound 0.0316 µM
[18] = second compound 3.16 µM, first compound 0.1 µM
[19] = second compound 3.16 µM, first compound 0.316 µM
[20] = second compound 3.16 µM, first compound 1 µM
[21] = second compound 10 µM, first compound 0.0316 µM
[22] = second compound 10 µM, first compound 0.1 µM
[23] = second compound 10 µM, first compound 0.316 µM
[24] = second compound 10 µM, first compound 1 µM
[25] = second compound 0.0316 µM, first compound 3.16 µM
[26] = second compound 0.0316 µM, first compound 10 µM
[27] = second compound 0.1 µM, first compound 3.16 µM
[28] = second compound 0.1 µM, first compound 10 µM
[29] = second compound 0.316 µM, first compound 3.16 µM
[30] = second compound 0.316 µM, first compound 10 µM
[31] = second compound 1 µM, first compound 3.16 µM
[32] = second compound 1 µM, first compound 10 µM
[33] = second compound 3.16 µM, first compound 3.16 µM
[34] = second compound 3.16 µM, first compound 10 µM
[35] = second compound 10 µM, first compound 3.16 µM
[36] = second compound 10 µM, first compound 10 µM
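Note: spheroids exposed to compounds for one week before readout.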
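Throughout, for viability, T/C: percent of DMSO vehicle wells luminescence so 100% = untreated viability.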

CCc1c2c(nc3ccc(O)cc13)-c1cc3c(c(=O)n1C2)COC(=O)[C@]3(O)CC + Nc1ccc(C#CCN(C(=O)Cc2ncc(C(F)(F)F)cc2C(F)(F)F)c2ccc(F)cc2)nn1 was tested, and the IC50 (second compound 0.0316 µM) was < 0.00316 µM, the IC50 (second compound 0.1 µM) was < 0.00316 µM and the IC50 (second compound 0.316 µM) was < 0.00316 µM. The IC50 (second compound 1 µM) was < 0.00316 µM, the IC50 (second compound 3.16 µM) was < 0.00316 µM and the IC50 (second compound 10 µM) was < 0.00316 µM. The viability, T/C (second compound 0.0316 µM, first compound 0.00316 µM) was 40%, the viability, T/C (second compound 0.0316 µM, first compound 0.01 µM) was 32.4% and the viability, T/C [1] was 33.4%. It also gave a viability, T/C [2] of 33%, a viability, T/C [3] of 35% and a viability, T/C [4] of 16.2%. It also gave a viability, T/C (second compound 0.1 µM, first compound 0.00316 µM) of 39.4%, a viability, T/C (second compound 0.1 µM, first compound 0.01 µM) of 37.8% and a viability, T/C [5] of 35%. For the same molecule, the viability, T/C [6] was 32.4%, the viability, T/C [7] was 32.8% and the viability, T/C [8] was 20.6%. The viability, T/C (second compound 0.316 µM, first compound 0.00316 µM) was 35.8%, the viability, T/C (second compound 0.316 µM, first compound 0.01 µM) was 38% and the viability, T/C [9] was 34.8%. The viability, T/C [10] was 33.3%, the viability, T/C [11] was 33% and the viability, T/C [12] was 16.9%. For the same molecule, the viability, T/C (second compound 1 µM, first compound 0.00316 µM) was 38.4%, the viability, T/C (second compound 1 µM, first compound 0.01 µM) was 32.3% and the viability, T/C [13] was 32.7%. It also gave a viability, T/C [14] of 31%, a viability, T/C [15] of 30.5% and a viability, T/C [16] of 21.7%. For the same molecule, the viability, T/C (second compound 3.16 µM, first compound 0.00316 µM) was 36.2%, the viability, T/C (second compound 3.16 µM, first compound 0.01 µM) was 31.6% and the viability, T/C [17] was 29.4%. For the same molecule, the viability, T/C [18] was 32.7%, the viability, T/C [19] was 39.1% and the viability, T/C [20] was 23.1%. The viability, T/C (second compound 10 µM, first compound 0.00316 µM) was 38.6%, the viability, T/C (second compound 10 µM, first compound 0.01 µM) was 35% and the viability, T/C [21] was 36.9%. The viability, T/C [22] was 28.7%, the viability, T/C [23] was 31.2% and the viability, T/C [24] was 18.6%.

For O=c1[nH]cc(F)c(=O)[nH]1 + Nc1ccc(C#CCN(C(=O)Cc2ncc(C(F)(F)F)cc2C(F)(F)F)c2ccc(F)cc2)nn1, the IC50 (second compound 0.0316 µM) was > 10 µM, the IC50 (second compound 0.1 µM) was > 10 µM and the IC50 (second compound 0.316 µM) was > 10 µM. The IC50 (second compound 1 µM) was > 10 µM, the IC50 (second compound 3.16 µM) was > 10 µM and the IC50 (second compound 10 µM) was > 10 µM. It also gave a viability, T/C [1] of 108%, a viability, T/C [2] of 102% and a viability, T/C [3] of 89.4%. The viability, T/C [4] was 88.2%, the viability, T/C [25] was 89.1% and the viability, T/C [26] was 79.3%. It also gave a viability, T/C [5] of 113%, a viability, T/C [6] of 90.9% and a viability, T/C [7] of 92.4%. It also gave a viability, T/C [8] of 96.2%, a viability, T/C [27] of 83.2% and a viability, T/C [28] of 76.7%. It also gave a viability, T/C [9] of 99.2%, a viability, T/C [10] of 106% and a viability, T/C [11] of 100%. The viability, T/C [12] was 93.4%, the viability, T/C [29] was 75.9% and the viability, T/C [30] was 84.7%. The viability, T/C [13] was 101%, the viability, T/C [14] was 111% and the viability, T/C [15] was 108%. The viability, T/C [16] was 92.4%, the viability, T/C [31] was 90.1% and the viability, T/C [32] was 83.4%. It also gave a viability, T/C [17] of 95%, a viability, T/C [18] of 132% and a viability, T/C [19] of 102%. It also gave a viability, T/C [20] of 104%, a viability, T/C [33] of 88.3% and a viability, T/C [34] of 82.6%. For the same molecule, the viability, T/C [21] was 101%, the viability, T/C [22] was 118% and the viability, T/C [23] was 97.1%. The viability, T/C [24] was 100%, the viability, T/C [35] was 78.3% and the viability, T/C [36] was 83.8%.

COc1cc2cc(C(=O)CCC(=O)O)sc2cc1OC + COC1C(OC(N)=O)C(O)C(Oc2ccc3c(O)c(NC(=O)c4ccc(O)c(CC=C(C)C)c4)c(=O)oc3c2C)OC1(C)C was tested, and the IC50 (second compound 0.0316 µM) was > 10 µM, the IC50 (second compound 0.1 µM) was > 10 µM and the IC50 (second compound 0.316 µM) was > 10 µM. For the same molecule, the IC50 (second compound 1 µM) was > 10 µM, the IC50 (second compound 3.16 µM) was > 10 µM and the IC50 (second compound 10 µM) was > 10 µM. It also gave a viability, T/C [1] of 102%, a viability, T/C [2] of 104% and a viability, T/C [3] of 87.3%. It also gave a viability, T/C [4] of 114%, a viability, T/C [25] of 94.2% and a viability, T/C [26] of 106%. It also gave a viability, T/C [5] of 114%, a viability, T/C [6] of 95.8% and a viability, T/C [7] of 93.8%. The viability, T/C [8] was 105%, the viability, T/C [27] was 88.1% and the viability, T/C [28] was 102%. It also gave a viability, T/C [9] of 98.8%, a viability, T/C [10] of 95% and a viability, T/C [11] of 110%. It also gave a viability, T/C [12] of 93.4%, a viability, T/C [29] of 93.8% and a viability, T/C [30] of 106%. For the same molecule, the viability, T/C [13] was 104%, the viability, T/C [14] was 96.8% and the viability, T/C [15] was 94.4%. It also gave a viability, T/C [16] of 102%, a viability, T/C [31] of 92.7% and a viability, T/C [32] of 115%. It also gave a viability, T/C [17] of 99.1%, a viability, T/C [18] of 102% and a viability, T/C [19] of 107%. For the same molecule, the viability, T/C [20] was 103%, the viability, T/C [33] was 92.5% and the viability, T/C [34] was 134%. The viability, T/C [21] was 97.2%, the viability, T/C [22] was 104% and the viability, T/C [23] was 105%. The viability, T/C [24] was 99%, the viability, T/C [35] was 94.8% and the viability, T/C [36] was 122%.
